Literature values, collected in US20230089681A1, “USE OF A COMBINATION OF SULFICANT COMPOUNDS WITH A LIQUID CARRIER AS A SELF EMULSIFYING DRUG DELIVERY SYSTEM” (priority 2021, published 2023).
Like-named read-outs stand apart in the source and are kept apart here.

- absorption (oral, in capsule form taken with water): 0.306%
- absorption (traditional oral administration): 0.36%
Structure (SMILES): COc1ccc2cc3[n+](cc2c1OC)CCc1cc2c(cc1-3)OCO2 [Berberine]
